# Where “and” joins values, the source holds several entries; their conditions need not be identical. Equal entries are not always repeated. Entries after “also recorded” stand apart in the source; their conditions may differ. Where two headings read alike, the source gives them in different places.
# Experiments:
# TNF-α [1] = assay type: cell-based, mouse
# IL-6 = assay type: cell-based, mouse
# CXCL-1/KC = assay type: cell-based, mouse
# IL-1β [2] = test system: IL-1β
# IL-1α = details: 17ya 40 nM, Dex 10 nM; for IL-1α, replicate 1 / IL-1α, replicate 2 / IL-1α, replicate 3: mouse spleen cells, LPS 5 μg/ml
# TNF-α [3] = assay: Splenocyte model, flow cytometry of TNF-α expressing cells after LPS; assay type: cell-based, mouse; details: 200 nM, 2 hrs preincubation, LPS 5 μg/mL 20 hrs; LPS alone 6.48%, unstimulated 1.03%
# Protocol: Briefly, cells were washed two times with FACS (PBS containing 1% serum FBS) staining buffer and fully re-suspended in Cyto-Fast Fix/Perm Buffer for 20 min. Then the cells were washed again for two times with Cyto-Fast Perm wash solution and subsequently stained with recommended dilutions of intracellular antibodies for 30 min at room temperature in the dark. After staining, the cells were washed twice in FACS staining buffer, before they were resuspended in FACS staining buffer and analyzed using a NovoCyte flow cytometer (Agilent, Santa Clara, CA). […] FIG. 2E illustrates the flow cytometry of splenocytes incubated with LPS and Colchicine (200 nM).
# IL-1β [4] = assay: ELISA assay to determine IL-1β in PMA-differentiated THP-1 cells stimulated by nigericin; assay type: cell-based, human; details: 17ya 40 nM-5 μM, colchicine 1-10 μM, 1 hr, nigericin 20 μM 1 hr
# Protocol: Concentrations of IL-1β in culture supernatant. […] IL-1β level was assessed by enzyme-linked immunosorbent assay (ELISA) kit for human IL-1β (R&D systems) (****P<0.0001, Ordinary one-way ANOVA, Prism 9).
# [5] = adjusted data (control average subtracted), mouse spleen cells, LPS 5 μg/ml, 17ya 40 nM, Dex 10 nM
# [6] = raw data, mouse spleen cells, LPS 5 μg/ml, 17ya 40 nM, Dex 10 nM
# [7] = adjusted data (control average subtracted)
smiles,measurement,setting,value
"C[C@@H]1C[C@H]2[C@@H]3CCC4=CC(=O)C=C[C@]4(C)[C@@]3(F)[C@@H](O)C[C@]2(C)[C@@]1(O)C(=O)CO [Dex, dexamethasone]","TNF-α, Average",TNF-α [1],32.414 and 33.60
same,"TNF-α, replicate 1",TNF-α [1],34.2933 and 35.478
same,"TNF-α, replicate 2",TNF-α [1],31.309 and 32.494
same,"TNF-α, replicate 3",TNF-α [1],31.640 and 32.825
same,"average cytokine suppression, TNF-α",TNF-α [1],79%
same,"IL-6, replicate 1",IL-6,99.55 and 17.594
same,"IL-6, replicate 2",IL-6,73.64 and −8.316
same,"IL-6, replicate 3",IL-6,72.76 and −9.196
same,"average cytokine suppression, IL-6",IL-6,100%
same,"CXCL-1/KC, Average",CXCL-1/KC,136.043 and 253.688
same,"CXCL-1/KC, replicate 1",CXCL-1/KC,133.410 and 251.054
same,"CXCL-1/KC, replicate 2",CXCL-1/KC,132.285 and 249.929
same,"CXCL-1/KC, replicate 3",CXCL-1/KC,142.436 and 260.08
same,"average cytokine suppression, KC",CXCL-1/KC,59%
same,"IL-1β, replicate 2",IL-1β [2],4.382
same,"average cytokine suppression, IL-1β","IL-1β [2]; LPS-stimulated mouse spleen cells, 17ya 40 nM, Dex 10 nM",110%
same,"IL-1β, replicate 1",IL-1β [2]; [5],−1.904
same,"IL-1β, replicate 2",IL-1β [2]; [5],−2.334
same,"IL-1β, replicate 1",IL-1β [2]; [6],4.812
same,"IL-1β, replicate 3",IL-1β [2]; [6],3.956
same,"average cytokine suppression, IL-1α",IL-1α; LPS-stimulated mouse spleen cells,106%
same,"IL-1α, replicate 1",IL-1α; [7],−10.371
same,"IL-1α, replicate 2",IL-1α; [7],−2.519
same,"IL-1α, replicate 3",IL-1α; [7],3.688
same,"IL-1α, replicate 1",IL-1α; raw data,22.962
same,"IL-1α, replicate 2",IL-1α; raw data,30.814
same,"IL-1α, replicate 3",IL-1α; raw data,37.012
COc1cc2c(c(OC)c1OC)-c1ccc(OC)c(=O)cc1[C@@H](NC(C)=O)CC2 [colchicine],spleen cells expressing TNF-α,TNF-α [3],3.30%
same,IL-1β secretion in response to nigericin stimulation,IL-1β [4],dose-dependently (partially) suppressed the IL-1β levels; also recorded: significantly suppressed IL-1β secretion

# — patent publication US12728114B2, “Methods of treating inflammation” (VERU INC., priority 2021, dated 2026)
